We go through four compounds from ChEMBL document CHEMBL1135985, “Synthesis, pharmacokinetics, efficacy, and rat retinal toxicity of a novel mitomycin C-triamcinolone acetonide conjugate” (J Med Chem, 2002).

Assay [1] deals with NIH3T3. Nature of the assay: Inhibition of NIH 3T3 cell growth required to induce 50% of maximum response using antiproliferative assay. Type of assay: functional, cell-based. The settings on record: Mus musculus.
The subject of assay [2] is NIH3T3. Nature of the assay: Maximal percent of fibroblast cell growth inhibition using antiproliferative assay. The class given is functional, Mus musculus.

Usually IC50 stands for the concentration that gives 50% inhibition. A low value points to inhibition by little substance. Usually Inhibition stands for the percentage by which the read-out fell short of the control. High values mean a response far below the control, low ones a response near the control.

Take `CO[C@@]12[C@H](COC(N)=O)C3=C(C(O)=C(C)C(=N)C3=O)N1C[C@H]1[C@@H]2N1C(=O)CCCC(=O)OCC(=O)[C@@]12OC(C)(C)O[C@@H]1CC1C3CCC4=CC(=O)C=C[C@]4(C)[C@@]3(F)[C@@H](O)C[C@@]12C` (stereo partly drawn): the midpoint of inhibition in the assay on NIH3T3 [1], the IC50, lay at 2.4 µM. Besides, the Inhibition in the assay with NIH3T3 [2] is listed as 67%.
For the compound `CO[C@@]12[C@H](COC(N)=O)C3=C(C(=O)C(C)=C(N)C3=O)N1C[C@@H]1N[C@@H]12` [MITOMYCIN], the half-maximal inhibitory concentration (IC50) with NIH3T3 [1] came out at 1.7 µM. In the assay on NIH3T3 [2], this compound showed an Inhibition of 88%.
As for `CC1(C)O[C@@H]2CC3C4CCC5=CC(=O)C=C[C@]5(C)[C@@]4(F)[C@@H](O)C[C@]3(C)[C@]2(C(=O)CO)O1.CO[C@@]12[C@H](COC(N)=O)C3=C(C(=O)C(C)=C(N)C3=O)N1C[C@@H]1N[C@@H]12` (stereo partly drawn) [MIXTURE OF MMC AND TA], the concentration for half-maximal inhibition (IC50) in the assay on NIH3T3 [1] came out at 1.6 µM. Further, the Inhibition in the assay on NIH3T3 [2] was determined as 83%.
Compound `CC1(C)O[C@@H]2C[C@H]3[C@@H]4CCC5=CC(=O)C=C[C@]5(C)[C@@]4(F)[C@@H](O)C[C@]3(C)[C@]2(C(=O)CO)O1` [TRIAMCINOLONE ACETONIDE] yielded an IC50 in the assay with NIH3T3 [1] of 2.5 µM. Further, the Inhibition in the assay on NIH3T3 [2] is 25%.
